Experimental data from patent publication US7811797B2, “α-isomaltosylglucosaccharide-forming enzyme, process and uses of the same” (Kabushiki Kaisha Hayashibara Seibutsu Kagaku Kenkyujo, priority 2000, dated 2010).

Columns and labels:
[1] = tested on: Escherichia coli IFO 3301; experiment: Assimilation test, Escherichia coli; format: cell-based; conditions: PYF medium with 0.5% saccharide, 37° C., four days, anaerobic
[2] = tested on: α-isomaltosylglucosaccharide-forming enzyme; experiment: Action on saccharides (substrates), Enzyme of Strain C9; format: biochemical, Bacillus globisporus C9; parameters: key: −: it showed no change; +: it showed a slight reduction of the color spot of the substrate and the formation of other reaction product; ++: it showed a high reduction of the color spot of the substrate and the formation of other reaction product; +++: it showed a substantial disappearance of the substrate spot and the formation of other reaction product; conditions: two units/g substrate, substrate 2% (w/v), 30° C., pH 6.0, 24 hours, TLC
Method in brief: (§1)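 Purified enzyme from each strain was added at 2 units/g substrate to each of 24 saccharides at 2% (w/v). Incubation ran 24 h at 30° C, pH 6.0, or pH 8.4 for the A19 enzyme. TLC compared reaction mixtures before and after incubation to show whether each substrate was acted on.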

[3] = tested on: α-isomaltosylglucosaccharide-forming enzyme; experiment: Action on saccharides (substrates), Enzyme of Strain C11; format: biochemical, Bacillus globisporus C11; parameters: key: −: it showed no change; +: it showed a slight reduction of the color spot of the substrate and the formation of other reaction product; ++: it showed a high reduction of the color spot of the substrate and the formation of other reaction product; +++: it showed a substantial disappearance of the substrate spot and the formation of other reaction product; conditions: two units/g substrate, substrate 2% (w/v), 30° C., pH 6.0, 24 hours, TLC
Method in brief: as §1

[4] = tested on: α-isomaltosylglucosaccharide-forming enzyme; experiment: Action on saccharides (substrates), Enzyme of Strain A19; format: biochemical, Arthrobacter globiformis A19; parameters: key: −: it showed no change; +: it showed a slight reduction of the color spot of the substrate and the formation of other reaction product; ++: it showed a high reduction of the color spot of the substrate and the formation of other reaction product; +++: it showed a substantial disappearance of the substrate spot and the formation of other reaction product; conditions: two units/g substrate, substrate 2% (w/v), 30° C., pH 8.4, 24 hours, TLC
Method in brief: as §1

[5] = tested on: α-isomaltosylglucosaccharide-forming enzyme; experiment: Transfer-acceptor specificity, Enzyme of Strain N75; format: biochemical, Bacillus globisporus N75; conditions: acceptor 1.6%, PINE-DEX #100 donor 4%, one unit/g donor, 30° C., pH 6.0, 24 hours
Method in brief: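 Each candidate acceptor at 1.6% was combined with 4% partial starch hydrolysate donor and 1 unit/g donor (d.s.b.) of purified enzyme. Incubation ran 24 h at 30 °C, pH 6.0 for the C9, C11 and N75 enzymes and pH 8.4 for A19. Transfer products were detected by GLC for mono- and disaccharide acceptors and HPLC for trisaccharide acceptors.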

Salivary amylase = molecular target: T1, Salivary amylase (Homo sapiens, UniProt P0DUB6); experiment: Digestion test in vitro, salivary amylase
T1 sequence (P0DUB6 16-511): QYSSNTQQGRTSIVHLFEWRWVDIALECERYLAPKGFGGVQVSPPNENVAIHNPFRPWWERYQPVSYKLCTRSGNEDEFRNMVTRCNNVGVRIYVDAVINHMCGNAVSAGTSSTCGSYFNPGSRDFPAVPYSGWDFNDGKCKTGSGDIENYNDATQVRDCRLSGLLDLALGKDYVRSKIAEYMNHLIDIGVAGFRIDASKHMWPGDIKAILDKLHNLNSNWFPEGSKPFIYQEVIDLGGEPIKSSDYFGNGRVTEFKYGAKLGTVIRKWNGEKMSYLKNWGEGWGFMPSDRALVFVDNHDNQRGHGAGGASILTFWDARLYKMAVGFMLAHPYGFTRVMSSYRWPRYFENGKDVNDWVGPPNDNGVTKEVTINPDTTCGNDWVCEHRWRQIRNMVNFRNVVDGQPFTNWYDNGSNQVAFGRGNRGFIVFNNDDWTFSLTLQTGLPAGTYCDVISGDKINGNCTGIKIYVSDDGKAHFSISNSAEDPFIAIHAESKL

[6] = tested on: Small intestinal mucosal enzyme; experiment: Digestion test in vitro, small intestinal mucosal enzyme

| SMILES | Assimilability [1] | Enzymatic action, Enzyme of Strain C9 [2] | Enzymatic action, Enzyme of Strain C11 [3] | Enzymatic action, Enzyme of Strain A19 [4] | Product of transferring reaction, Enzyme of Strain N75 [5] | Decomposition percentage (%) by digestive enzyme (Salivary amylase) | Decomposition percentage (%) by digestive enzyme [6] |
| --- | --- | --- | --- | --- | --- | --- | --- |
| OCC1OC2OCC3O[C@H](O[C@H]4C(O)C(CO)OC(OCC5O[C@H](O[C@@H](C1O)C2O)C(O)C(O)[C@@H]5O)C4O)C(O)C(O)[C@@H]3O (stereo partly drawn) [Cyclotetrasaccharide, cyclo{→6)-α-D-glucopyranosyl-(1→3)-α-D-glucopyranosyl-(1→6)-α-D-glucopyranosyl-(1→3)-α-D-glucopyransoyl-(1→}] | − (judged negative (−) when the post culture had a pH of 6.0 or higher) |  |  |  |  |  |  |
| OC[C@@H](O)[C@@H](O[C@H]1O[C@H](CO)[C@@H](O)[C@H](O)[C@H]1O)[C@H](O)[C@@H](O)CO [Maltitol, reference compound] |  | − | − | − | ++ (a saccharide-transferred product was detected in an amount over ten percent through transfer reaction to acceptor) | 0.0% | 4.0% |
